# Assay results from paper PMC8041284, “Tunable Methacrylamides for Covalent Ligand Directed Release Chemistry” (Journal of the American Chemical Society, 2021).
# Molecular target: BTK (Homo sapiens, UniProt Q06187)
# Assay: biochemical
# Conditions: read-out: BTK inhibition (%)
# BTK, sequence (Q06187 402-655 limits assumed): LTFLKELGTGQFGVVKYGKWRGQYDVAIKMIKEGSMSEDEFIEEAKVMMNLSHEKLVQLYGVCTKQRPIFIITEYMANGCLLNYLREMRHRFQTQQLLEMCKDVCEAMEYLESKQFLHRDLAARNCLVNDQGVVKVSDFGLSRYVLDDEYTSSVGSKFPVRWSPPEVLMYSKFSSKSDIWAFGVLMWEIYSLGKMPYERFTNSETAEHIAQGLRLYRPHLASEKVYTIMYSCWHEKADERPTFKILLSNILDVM
row,SMILES,inhibition at 10 µM [%]
1,Cc1cc(C(=O)CN2CCCC2)c(C)n1-c1ccc(F)cc1 [PCM-0215202],5.4
2,NCC(CC(=O)O)c1ccccc1 (centres unmarked) [PCM-0215126],-9.3
3,CCN1C[C@]2(COC)CC[C@H](OC)[C@]34C1[C@H]([C@H](OC)[C@H]23)[C@@]1(OC(C)=O)C[C@H](OC)[C@@]2(O)C[C@@H]4[C@@H]1[C@H]2OC(=O)c1ccc(OC)cc1 [PCM-0216304],-17

# Same assay, conditions: read-out: BTK inhibition (%), 0.75 uM BTK, […] probe 3l, 15 min preincubation
row,SMILES,inhibition at 10 µM [%]
1,CC(=O)O[C@@H]1C[C@@]23C[C@@]24CC[C@H](O[C@@H]2OC[C@@H](O)[C@H](O)[C@H]2O)C(C)(C)[C@@H]4CC=C3[C@]2(C)C[C@@H]3OC4(C[C@@H](C)[C@@H]3[C@@]12C)OC(O)C1(C)OC41 (some centres unmarked) [PCM-0216175],-6.2
2,CN[C@H](CC(C)C)C(=O)N[C@H]1C(=O)N[C@@H](CC(N)=O)C(=O)N[C@H]2C(=O)N[C@H]3C(=O)N[C@H](C(=O)N[C@H](C(=O)O)c4cc(O)cc(O)c4-c4cc3ccc4O)[C@H](O)c3ccc(c(Cl)c3)Oc3cc2cc(c3O[C@@H]2O[C@H](CO)[C@@H](O)[C@H](O)[C@H]2O[C@H]2C[C@](C)(N)[C@H](O)[C@H](C)O2)Oc2ccc(cc2Cl)[C@H]1O [PCM-0064980],4.3
3,O=C(NC1CCOCC1)c1ccc(-c2cc(-c3cn[nH]c3-c3ccccn3)ccn2)cc1 [PCM-0095490],1.6
4,N[C@@H]1CCCN(c2c(/C=C3\SC(=O)NC3=O)cccc2-c2ccccc2)C1 [PCM-0095732],4.1
5,NC(=O)CC[C@@H](N)C(=O)O [PCM-0095186],6
6,COc1ccc(/C=C/C(=O)c2c(O)cc(OC)cc2OC)cc1 [PCM-0216582],11.6
7,O=c1ccc2ccc(O)cc2[nH]1 [PCM-0216227],7.8
8,Cc1onc(-c2ccccc2)c1C(=O)N[C@@H]1C(=O)N2[C@@H]1SC(C)(C)[C@@H]2C(=O)O [PCM-0215187],21.3
9,CCOC(=O)N[C@@H]1CC[C@@H]2[C@@H](C1)C[C@H]1C(=O)O[C@H](C)[C@H]1[C@H]2/C=C/c1ccc(-c2cccc(F)c2)cn1 [PCM-0215561],26.3
10,COC(=O)CC[C@H](NC(=O)[C@H](CC(=O)OC)NC(=O)OCc1ccccc1)C(=O)N[C@H](C(=O)N[C@@H](CC(=O)OC)C(=O)CF)C(C)C [PCM-0215362],15.4
11,CCCCCC/C=C\CCCCCCCc1cccc(O)c1C(=O)O [PCM-0216327],84.2
12,CCC(C)(Oc1ccc(C2(c3ccc(OC(C)(CC)C(=O)O)cc3)CCCCC2)cc1)C(=O)O (centres unmarked) [PCM-0095329],15.6
13,O=C(O)CSc1cc(NS(=O)(=O)c2ccc(Br)cc2)c2ccccc2c1O [PCM-0215378],51.7
14,NC(=O)C1CCCc2c1[nH]c1ccc(Cl)cc21 (centres unmarked) [PCM-0095104],-3.4
15,CCOC(=O)c1ccc(C#Cc2ccc3c(c2)C(C)(C)CCS3)nc1 [PCM-0095130],-16.6
16,C[C@@H]1CC[C@H]2[C@@H](C)C(O)O[C@@H]3O[C@@]4(C)CC[C@@H]1[C@]32OO4 (some centres unmarked) [PCM-0214674],-20.2
17,CNCC[C@H](Oc1cccc2ccccc12)c1cccs1 [PCM-0090599],-1.6
18,N[C@@H]1CN(c2c(F)cc3c(=O)c(C(=O)O)cn([C@@H]4C[C@@H]4F)c3c2Cl)CC12CC2 [PCM-0095203],-6.8
19,Cc1c(C(C)C)c(=O)n(-c2ccccc2)n1C [PCM-0216024],-11.7
20,c1ccc(-c2[nH]ncc2-c2ccnc3ccccc23)nc1 [PCM-0095402],14.5
21,COc1c2occc2cc2ccc(=O)oc12 [PCM-0087924],-19.5
22,CC(=O)Nc1nc(-c2cccc(NS(=O)(=O)c3cccc4c(N(C)C)cccc34)c2)cs1 [PCM-0215679],97.3
23,CC(=O)OC(CC(=O)O)C[N+](C)(C)C (centres unmarked) [PCM-0216588],-18.5

row,SMILES,inhibition at 10 µM [%]
1,CN1CCc2c(c3ccccc3n2Cc2ccc(C(=O)NO)cc2)C1 [PCM-0095487],0.8
2,OB1OCc2cc(F)ccc21 [PCM-0101990],-10
3,CCN(CC)CCN(Cc1ccc(-c2ccc(C(F)(F)F)cc2)cc1)C(=O)Cn1c(SCc2ccc(F)cc2)nc(=O)c2c1CCC2 [PCM-0095746],-30.1
4,O=C1C[C@@H](c2ccc(O[C@@H]3O[C@H](CO)[C@@H](O)[C@H](O)[C@H]3O)cc2)Oc2cc(O)ccc21 [PCM-0214980],10.9
5,CCC(=O)NCC[C@@H]1CCc2ccc3c(c21)CCO3 [PCM-0090528],-20.2
6,COc1ccc(-c2cc(=O)c3c(O)c(OC)c(O)cc3o2)cc1OC [PCM-0214985],72.4
7,CC(C)(Sc1cc(C(C)(C)C)c(O)c(C(C)(C)C)c1)Sc1cc(C(C)(C)C)c(O)c(C(C)(C)C)c1 [PCM-0086112],0.8
8,CCCCCCOc1cc(C)c(O)c(C)c1C [PCM-0216088],-25.5
9,C=C(C)[C@@H]1CC[C@]2(C(=O)O)CC[C@]3(C)[C@H](CC[C@@H]4[C@@]5(C)CC[C@H](O[C@@H]6OC[C@H](O)[C@H](O)[C@H]6O[C@@H]6O[C@@H](C)[C@H](O)[C@@H](O)[C@H]6O)[C@@](C)(CO)[C@@H]5CC[C@]43C)[C@@H]12 [PCM-0216514],34
10,Cc1nnc(SCC2=C(C(=O)O)N3C(=O)[C@@H](NC(=O)Cn4cc(Cl)c(=O)c(Cl)c4)[C@H]3SC2)s1 [PCM-0215135],-13.2
11,O=C(Nc1ccc(Br)cc1)c1ccc(Br)c(S(=O)(=O)NCc2ccccc2)c1 [PCM-0215665],100
12,CCOC(=O)c1c(CSc2ccccc2)n(C)c2cc(Br)c(O)c(CN(C)C)c12 [PCM-0095296],10.1
13,CN(C)CCC=C1c2ccccc2CCc2ccccc21 [PCM-0064521],-22.6
14,CCOC(CN1CCN(CC(C)C(=O)c2ccccc2)CC1)c1ccccc1 (centres unmarked) [PCM-0215205],-6.8
15,Nc1cccc2c1C(=O)N(C1CCC(=O)NC1=O)C2=O (centres unmarked) [PCM-0095126],11
16,Cn1sc(=O)n(Cc2ccccc2)c1=O [PCM-0095428],4.8
17,COc1ccc([C@@H]2CC(=O)c3c(O)cc(O)cc3O2)cc1O [PCM-0091279],-11.7
18,CCCN(CCC)C(=O)C1=Cc2ccc(-c3ccc(C(=O)N4CCCC4)cc3)cc2N=C(N)C1 [PCM-0215564],-10.3
19,Fc1cc(-c2cccc3ncc(-c4cnn(C5CCNCC5)c4)nc23)cc(F)c1CN1CCOCC1 [PCM-0095382],78.6
20,CC1(C)OCCn2c1nc1c(N3CCOCC3)nc(-c3cnc(N)nc3)nc12 [PCM-0215737],37.9
21,C[C@@H]1O[C@@H](O[C@H]2[C@H](O[C@H]3CC[C@@]4(C)[C@@H](CC[C@]5(C)[C@@H]4CC=C4[C@@H]6CC(C)(C)CC[C@]6(C(=O)O)CC[C@]45C)[C@]3(C)CO)OC[C@H](O)[C@@H]2O)[C@H](O)[C@H](O)[C@H]1O [PCM-0214969],-10.9
22,CC(=O)OCC(=O)[C@@]12N=C(C)O[C@@H]1C[C@H]1[C@@H]3CCC4=CC(=O)C=C[C@]4(C)[C@H]3[C@@H](O)C[C@@]12C [PCM-0086410],-7.6
23,O=c1c(-c2ccc(O)cc2)coc2cc(O)cc(O)c12 [PCM-0065176],16.6

row,SMILES,inhibition at 10 µM [%]
1,O=C(Nc1cc(Cl)cc2c1[nH]c1cnccc12)c1cccnc1 [PCM-0215579],12.4
2,FC(F)(F)c1ccc(/C=C/c2nc(COc3ccc(CCCCn4ccnn4)cc3)co2)cc1 [PCM-0095252],13.1
3,CC(=O)c1ccc(O)c(C(=O)O)c1 [PCM-0215053],-9.3
4,C=C1CC[C@@H]2[C@](C)(CO)[C@H](O)CC[C@@]2(C)[C@H]1C/C=C1\C=COC1=O [PCM-0215003],14
5,CNC(=O)c1cc(Oc2ccc(NC(=O)Nc3ccc(Cl)c(C(F)(F)F)c3)cc2)ccn1 [PCM-0094958],73.8
6,CCCCNc1ccc(C(=O)OCCN(C)C)cc1 [PCM-0064772],10.9
7,NCCCC[C@@H]1NC(=O)[C@@H](Cc2ccc(O)cc2)NC(=O)[C@H](CC(=O)O)NC(=O)CNC(=O)[C@H](CCCN=C(N)N)NC1=O [PCM-0215492],-10
8,Cc1cc(O)cc(O)c1 [PCM-0216278],3.1
9,CN(C)CCOc1ccc(/C(=C(/CCCl)c2ccccc2)c2ccccc2)cc1 [PCM-0086582],4.1
10,C[N+](C)(C)CCOP(=O)([O-])OP(=O)(O)OC[C@H]1O[C@@H](n2ccc(N)nc2=O)[C@H](O)[C@@H]1O [PCM-0215877],0.9
11,CCCC(=O)OCOC(=O)C1=C(C)NC(C)=C(C(=O)OC)C1c1cccc(Cl)c1Cl (centres unmarked) [PCM-0095244],18.7
12,C[C@@H](O[C@H]1OCCN(Cc2n[nH]c(=O)[nH]2)[C@H]1c1ccc(F)cc1)c1cc(C(F)(F)F)cc(C(F)(F)F)c1 [PCM-0214564],-8.3
13,CC(C)OC(=O)CCC/C=C\C[C@@H]1[C@@H](/C=C/C(F)(F)COc2ccccc2)[C@H](O)C[C@@H]1O [PCM-0216028],-61.5
14,CCOC(=O)[C@H](CCc1ccccc1)N[C@@H](C)C(=O)N1CCC[C@H]1C(=O)O [PCM-0085929],5.4
15,CN1CCC(CNc2ccc3ncc(-c4cccc(OC(F)(F)F)c4)n3n2)CC1 [PCM-0095238],45.5
16,C/C=C(/C)C(=O)O[C@H]1[C@@H](OC(=O)CC(C)C)c2c(ccc3ccc(=O)oc23)OC1(C)C [PCM-0216428],7.7
17,CCCc1cc(-c2nc(-c3ccc(C)cc3)cs2)ccn1 [PCM-0215677],6.9
18,CC(C)(O)c1coc(S(=O)(=O)NC(=O)Nc2c3c(cc4c2CCC4)CCC3)c1 [PCM-0215611],-0.9
19,CC(C)=CCC[C@@](C)(O)[C@H]1CC[C@]2(C)[C@@H]1[C@H](O)C[C@@H]1[C@@]3(C)CC[C@H](O[C@@H]4O[C@H](CO)[C@@H](O)[C@H](O)[C@H]4O[C@@H]4O[C@H](CO)[C@@H](O)[C@H](O)[C@H]4O)C(C)(C)[C@@H]3CC[C@]12C [PCM-0216609],21.6
20,O=c1cccc2n1C[C@@H]1CNC[C@H]2C1 [PCM-0094836],-10.1
21,CN(C)Cc1cccc(N=C(c2ccccc2)c2c(O)[nH]c3cc(C(N)=O)ccc23)c1 [PCM-0095090],5.5
22,Cc1ccc(C(=O)Nc2ccc(Oc3cc4cnn(C)c4cc3-c3cn[nH]c3)c(F)c2)c(=O)n1-c1ccc(F)cc1 [PCM-0215736],105
